Key:
[1] = Log D by shake flask method; type: physicochemical; details: n-octanol and pH 7.4 PBS
Protocol: To determine the lipophilicity of our inhibitors, the Log D at pH 7.4 was measured using the shake flask method. […] The tubes were shaken for 8 hours, centrifuged at 10000 rpm for 5 minutes then n-octanol and phosphate buffered saline layers separated. […] The ratios of AUC of the peaks were used to calculate the Log D in accordance with the equation: Log D=Log10(AUC of octanol layer/AUC of phosphate buffered saline layer)

[2] = molecular target: SHP2 (Homo sapiens (Human), UniProt Q06124); experiment: pNPP inhibition assay against SHP2; type: biochemical; details: pNPP at Km of the PTP
[3] = molecular target: LYP (Homo sapiens (Human), UniProt Q9Y2R2); experiment: pNPP inhibition assay against LYP; type: biochemical; details: pNPP at Km of the PTP
[4] = molecular target: VHR (Homo sapiens (Human), UniProt P51452); experiment: pNPP inhibition assay against VHR; type: biochemical; details: pNPP at Km of the PTP
[5] = molecular target: SHP1 (Homo sapiens (Human), UniProt P29350); experiment: pNPP inhibition assay against SHP1; type: biochemical; details: pNPP at Km of the PTP
[6] = molecular target: FAP-1 (Homo sapiens (Human), UniProt Q12923); experiment: pNPP inhibition assay against FAP-1; type: biochemical; details: pNPP at Km of the PTP
[7] = molecular target: mPTPA (Mycobacterium tuberculosis (strain ATCC 25618 / H37Rv), UniProt P9WIA1); experiment: biochemical
[8] = molecular target: PTPβ (Homo sapiens (Human), UniProt P23467); experiment: biochemical; details: pNPP at Km of the PTP
[9] = Kinetic solubility in pH 7.4 PBS; type: physicochemical; details: pH 7.4 PBS buffer
Protocol: The resulting mixture was stirred at 500 rpm for 90 minutes and then filtered using 0.45 μm PVDF membrane filter. After filtration, the concentration of corresponding compound was determined by HPLC, comparing the AUC obtained with that from a standard solution of the compound. Data represent the mean (t standard deviation, SD) of three separate experiments, performed in triplicate.

[10] = molecular target: MKP5 (Homo sapiens (Human), UniProt Q9Y6W6); experiment: pNPP inhibition assay against MKP5; type: biochemical; details: pNPP at Km of the PTP
[11] = molecular target: TC-PTP (Homo sapiens (Human), UniProt P17706); experiment: pNPP inhibition assay against TC-PTP; type: biochemical; details: pNPP at Km of the PTP
[12] = molecular target: CD45 (Homo sapiens (Human), UniProt P08575); experiment: pNPP inhibition assay against CD45; type: biochemical; details: pNPP at Km of the PTP
[13] = molecular target: HePTP (Homo sapiens (Human), UniProt P35236); experiment: pNPP inhibition assay against HePTP; type: biochemical; details: pNPP at Km of the PTP
[14] = molecular target: MKP3 (Homo sapiens (Human), UniProt Q16828); experiment: pNPP inhibition assay against MKP3; type: biochemical; details: pNPP at Km of the PTP
[15] = molecular target: PTP-PEST (Homo sapiens (Human), UniProt Q05209); experiment: pNPP inhibition assay against PTP-PEST; type: biochemical; details: pNPP at Km of the PTP
[16] = molecular target: Laforin (Homo sapiens (Human), UniProt O95278); experiment: pNPP inhibition assay against Laforin; type: biochemical; details: pNPP at Km of the PTP
[17] = Mouse liver microsomal stability; type: in vitro ADME; details: Mouse, after 60 min at 37° C.
From the text: A sufficient oral dosage must survive first-pass clearance through the liver before reaching its biological target. The majority of drugs/xenobiotics undergo phase I metabolism, mediated by the cytochrome P450 (CYP450) family of heme-thiolate proteins predominantly in the liver. Although mouse liver microsomal (MLM) stability studies are not a perfect substitute for in vivo metabolic clearance studies, but they serve as an initial […] model system that can correlate well with human liver microsomal (HLM) stability and in vivo activity in mice. To this end, compounds 4h, 4k, 4t, 4u, and 4v were allowed to react with mouse liver microsomes and the fraction of remaining parent compound over time was determined. […] Incorporation of fluorine into drug candidates generally improves their potency, bioavailability, and metabolic stability. In addition, fluorinated molecules are in general, nontoxic and mimic the corresponding nonfluorinated analogs in their stereoelectronic properties, so the drug's affinity for the receptor either remains the same or, in some cases increases. […] So, the loss of compounds tested here is attributed only to oxidative Phase I metabolism. The high microsomal stability of these compounds could be exploited pharmacologically.
Mouse (CD-1) pooled liver microsomes purchased from Fisher Scientific, IL, USA (0.5 mg/mL, Corning Gentest 3P, cat#452702), and the assay procedures were followed as previously reported. A solution of mouse liver microsomes and 1 mM of co-factor NADPH in 1 ml of phosphate buffer saline (pH=7.4) was prewarmed to 37° C. in an Eppendorf tube. Then 10 μL of a test solution (10 mM DMSO stock) was added to initiate the reaction. Verapamil-HCl was used as a positive control. […] The incubation mixture was kept at 37° C., and 50 μL aliquots were taken at times of 0, 5, 10, 15, 30 or 60 min. Each of the aliquot was quenched using 200 μL of ice-cold acetonitrile. The mixtures were vigorously vortexed and centrifuged to remove the precipitated protein and the supernatants were analyzed by an Agilent Technologies 6470 series, triple quadrupole LC/MS spectrometer to quantitate the remaining parent compound. The percent of the parent compound remaining was calculated from the formula: % parent compound remaining=(concentration at 60 min/concentration at 0 min)*100

[18] = molecular target: PTP-MEG2 (Homo sapiens (Human), UniProt P43378); experiment: pNPP inhibition assay against PTP-MEG2; type: biochemical; details: pNPP at Km of the PTP
[19] = molecular target: STEP (Homo sapiens (Human), UniProt P54829); experiment: pNPP inhibition assay against STEP; type: biochemical; details: pNPP at Km of the PTP
[20] = molecular target: PTPγ (Homo sapiens (Human), UniProt P23470); experiment: pNPP inhibition assay against PTPγ; type: biochemical; details: pNPP at Km of the PTP
[21] = molecular target: CDC14A (Homo sapiens (Human), UniProt Q9UNH5); experiment: pNPP inhibition assay against CDC14A; type: biochemical; details: pNPP at Km of the PTP
[22] = molecular target: PTPμ (Homo sapiens (Human), UniProt P28827); experiment: pNPP inhibition assay against PTPμ; type: biochemical; details: pNPP at Km of the PTP
[23] = molecular target: DEP-1 (Homo sapiens (Human), UniProt Q12913); experiment: pNPP inhibition assay against DEP-1; type: biochemical; details: pNPP at Km of the PTP
[24] = molecular target: PTPα (Homo sapiens (Human), UniProt P18433); experiment: pNPP inhibition assay against PTPα; type: biochemical; details: pNPP at Km of the PTP
[25] = molecular target: PTP1B (Homo sapiens (Human), UniProt P18031); experiment: pNPP inhibition assay against PTP1B; type: biochemical; details: pNPP at Km of the PTP
Sequence of PTP1B (P18031 3-277): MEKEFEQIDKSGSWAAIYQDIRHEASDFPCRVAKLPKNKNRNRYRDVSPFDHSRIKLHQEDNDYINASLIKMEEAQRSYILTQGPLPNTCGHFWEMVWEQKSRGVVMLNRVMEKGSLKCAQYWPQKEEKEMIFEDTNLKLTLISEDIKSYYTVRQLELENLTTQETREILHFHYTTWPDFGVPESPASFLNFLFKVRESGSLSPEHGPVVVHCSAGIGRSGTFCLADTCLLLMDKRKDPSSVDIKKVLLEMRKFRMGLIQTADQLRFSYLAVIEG

Sequence of VHR (P51452 28-179, species assumed): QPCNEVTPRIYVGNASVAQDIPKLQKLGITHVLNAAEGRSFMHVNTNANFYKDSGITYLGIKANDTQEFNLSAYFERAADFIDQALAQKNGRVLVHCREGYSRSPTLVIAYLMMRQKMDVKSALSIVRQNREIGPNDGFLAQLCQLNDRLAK
Sequence of PTP-MEG2 (P43378 303-574): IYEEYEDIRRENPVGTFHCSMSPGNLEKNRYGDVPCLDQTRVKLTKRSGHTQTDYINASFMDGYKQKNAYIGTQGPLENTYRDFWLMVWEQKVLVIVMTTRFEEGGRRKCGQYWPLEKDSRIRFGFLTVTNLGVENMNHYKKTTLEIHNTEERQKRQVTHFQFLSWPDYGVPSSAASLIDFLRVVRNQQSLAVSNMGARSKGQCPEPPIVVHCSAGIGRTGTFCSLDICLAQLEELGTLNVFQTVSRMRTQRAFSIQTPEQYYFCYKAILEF
Sequence of PTPγ (P23470 763-1445): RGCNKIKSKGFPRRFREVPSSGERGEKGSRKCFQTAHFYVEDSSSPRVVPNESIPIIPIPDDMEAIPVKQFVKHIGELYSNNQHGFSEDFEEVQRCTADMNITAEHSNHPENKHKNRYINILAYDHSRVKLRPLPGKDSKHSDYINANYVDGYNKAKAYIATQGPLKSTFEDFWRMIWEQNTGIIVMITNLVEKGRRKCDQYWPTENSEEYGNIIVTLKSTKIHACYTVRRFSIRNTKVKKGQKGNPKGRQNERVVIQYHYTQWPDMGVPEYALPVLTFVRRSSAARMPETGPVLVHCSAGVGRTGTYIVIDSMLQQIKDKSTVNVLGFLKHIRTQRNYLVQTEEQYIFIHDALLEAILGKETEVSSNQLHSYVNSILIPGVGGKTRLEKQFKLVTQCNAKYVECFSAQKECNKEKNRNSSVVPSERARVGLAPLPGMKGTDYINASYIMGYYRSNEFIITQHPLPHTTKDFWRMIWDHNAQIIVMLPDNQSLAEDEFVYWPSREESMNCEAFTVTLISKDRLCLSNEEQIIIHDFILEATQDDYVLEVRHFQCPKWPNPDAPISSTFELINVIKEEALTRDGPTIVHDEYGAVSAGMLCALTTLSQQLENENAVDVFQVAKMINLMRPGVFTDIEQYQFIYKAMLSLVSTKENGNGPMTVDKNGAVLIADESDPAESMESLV
Sequence of MKP3 (Q16828 206-349, species assumed): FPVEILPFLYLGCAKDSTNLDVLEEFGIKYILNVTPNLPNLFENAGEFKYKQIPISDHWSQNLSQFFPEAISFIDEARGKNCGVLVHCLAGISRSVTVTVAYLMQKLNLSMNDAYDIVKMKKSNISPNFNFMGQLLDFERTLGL
Sequence of SHP1 (P29350 244-515): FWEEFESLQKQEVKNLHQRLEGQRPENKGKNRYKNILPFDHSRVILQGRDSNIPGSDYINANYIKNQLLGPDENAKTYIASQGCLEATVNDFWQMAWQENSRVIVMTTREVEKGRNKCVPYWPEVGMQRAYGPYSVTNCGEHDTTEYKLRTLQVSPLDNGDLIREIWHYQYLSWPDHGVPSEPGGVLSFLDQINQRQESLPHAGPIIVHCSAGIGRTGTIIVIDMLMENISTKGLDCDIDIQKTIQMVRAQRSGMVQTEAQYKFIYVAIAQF
Sequence of FAP-1 (Q12923 2213-2467, species assumed): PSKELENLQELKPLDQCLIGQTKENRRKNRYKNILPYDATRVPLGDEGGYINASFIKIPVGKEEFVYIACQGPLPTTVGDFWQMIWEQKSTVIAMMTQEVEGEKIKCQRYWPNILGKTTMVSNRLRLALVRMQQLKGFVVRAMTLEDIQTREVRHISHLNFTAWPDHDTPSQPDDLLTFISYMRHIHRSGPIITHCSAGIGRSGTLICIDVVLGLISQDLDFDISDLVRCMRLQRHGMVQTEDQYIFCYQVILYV
Sequence of CD45 (P08575 599-1306, species assumed): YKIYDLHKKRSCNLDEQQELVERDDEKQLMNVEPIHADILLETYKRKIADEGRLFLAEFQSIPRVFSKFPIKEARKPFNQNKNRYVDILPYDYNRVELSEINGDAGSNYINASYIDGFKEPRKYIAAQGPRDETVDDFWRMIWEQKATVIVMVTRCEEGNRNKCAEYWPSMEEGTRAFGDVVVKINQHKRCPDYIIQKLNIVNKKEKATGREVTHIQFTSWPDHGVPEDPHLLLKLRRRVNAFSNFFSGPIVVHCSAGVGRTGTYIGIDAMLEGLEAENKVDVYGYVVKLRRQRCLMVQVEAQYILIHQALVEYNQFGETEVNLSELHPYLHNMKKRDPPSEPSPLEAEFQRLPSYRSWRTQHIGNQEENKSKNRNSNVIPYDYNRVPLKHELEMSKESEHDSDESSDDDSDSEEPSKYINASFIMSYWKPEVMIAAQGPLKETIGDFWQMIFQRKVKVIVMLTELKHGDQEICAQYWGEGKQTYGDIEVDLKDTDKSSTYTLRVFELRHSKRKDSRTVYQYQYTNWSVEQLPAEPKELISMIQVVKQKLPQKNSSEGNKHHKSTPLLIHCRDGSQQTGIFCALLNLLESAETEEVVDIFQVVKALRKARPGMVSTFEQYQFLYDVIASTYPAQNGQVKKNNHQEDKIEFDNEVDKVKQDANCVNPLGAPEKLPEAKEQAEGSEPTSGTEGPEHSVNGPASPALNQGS
Sequence of PTP-PEST (Q05209 28-293, species assumed): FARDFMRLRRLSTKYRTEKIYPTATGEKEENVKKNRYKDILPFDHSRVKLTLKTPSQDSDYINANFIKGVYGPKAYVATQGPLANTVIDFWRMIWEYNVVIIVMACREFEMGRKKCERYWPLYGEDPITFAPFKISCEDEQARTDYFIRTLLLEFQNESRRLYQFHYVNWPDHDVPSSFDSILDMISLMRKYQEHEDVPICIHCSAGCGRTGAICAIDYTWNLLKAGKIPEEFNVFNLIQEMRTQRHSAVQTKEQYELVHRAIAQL
Sequence of TC-PTP (P17706 5-275): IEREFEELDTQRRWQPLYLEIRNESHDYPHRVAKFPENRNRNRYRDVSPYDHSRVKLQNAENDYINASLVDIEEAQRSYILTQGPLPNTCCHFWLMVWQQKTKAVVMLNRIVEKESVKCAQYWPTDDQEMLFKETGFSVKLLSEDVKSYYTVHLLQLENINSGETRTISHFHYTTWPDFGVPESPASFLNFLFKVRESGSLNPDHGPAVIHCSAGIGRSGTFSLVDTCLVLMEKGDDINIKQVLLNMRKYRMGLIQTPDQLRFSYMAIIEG
Sequence of CDC14A (Q9UNH5 179-336, species assumed): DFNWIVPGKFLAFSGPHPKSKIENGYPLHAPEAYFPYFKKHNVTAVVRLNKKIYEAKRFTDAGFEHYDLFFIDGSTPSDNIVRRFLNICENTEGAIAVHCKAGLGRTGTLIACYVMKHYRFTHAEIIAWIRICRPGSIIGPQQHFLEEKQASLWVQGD
Sequence of PTPμ (P28827 900-1154): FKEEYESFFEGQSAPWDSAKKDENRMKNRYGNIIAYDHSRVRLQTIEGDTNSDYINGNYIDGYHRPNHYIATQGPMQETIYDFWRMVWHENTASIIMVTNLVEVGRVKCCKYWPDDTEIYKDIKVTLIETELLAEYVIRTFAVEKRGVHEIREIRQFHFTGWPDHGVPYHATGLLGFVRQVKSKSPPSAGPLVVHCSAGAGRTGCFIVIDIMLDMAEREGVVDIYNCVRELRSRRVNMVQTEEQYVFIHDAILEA
Sequence of LYP (Q9Y2R2 24-289, species assumed): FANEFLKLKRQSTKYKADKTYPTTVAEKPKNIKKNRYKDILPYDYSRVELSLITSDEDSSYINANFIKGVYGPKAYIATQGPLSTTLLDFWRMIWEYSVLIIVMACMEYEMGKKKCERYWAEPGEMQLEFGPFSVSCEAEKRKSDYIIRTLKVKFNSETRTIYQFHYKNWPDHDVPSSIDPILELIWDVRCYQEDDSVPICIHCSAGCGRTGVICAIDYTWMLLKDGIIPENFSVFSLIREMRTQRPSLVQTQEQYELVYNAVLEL
Sequence of DEP-1 (Q12913 1041-1298, species assumed): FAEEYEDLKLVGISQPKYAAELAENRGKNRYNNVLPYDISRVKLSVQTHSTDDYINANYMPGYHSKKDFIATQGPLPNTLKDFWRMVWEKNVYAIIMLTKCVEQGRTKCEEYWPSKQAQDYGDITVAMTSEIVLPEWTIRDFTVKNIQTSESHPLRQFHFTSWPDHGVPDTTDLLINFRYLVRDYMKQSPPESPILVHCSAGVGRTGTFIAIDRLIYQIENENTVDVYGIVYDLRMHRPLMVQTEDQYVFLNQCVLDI
Sequence of HePTP (P35236 97-350): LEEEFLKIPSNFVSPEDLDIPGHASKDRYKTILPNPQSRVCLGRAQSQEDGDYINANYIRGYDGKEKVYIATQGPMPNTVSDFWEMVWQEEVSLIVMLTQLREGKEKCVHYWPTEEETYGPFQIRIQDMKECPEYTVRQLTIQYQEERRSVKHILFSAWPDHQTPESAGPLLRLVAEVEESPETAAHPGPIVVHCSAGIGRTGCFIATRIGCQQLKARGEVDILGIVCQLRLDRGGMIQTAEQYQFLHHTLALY
Sequence of SHP2 (Q06124 247-517): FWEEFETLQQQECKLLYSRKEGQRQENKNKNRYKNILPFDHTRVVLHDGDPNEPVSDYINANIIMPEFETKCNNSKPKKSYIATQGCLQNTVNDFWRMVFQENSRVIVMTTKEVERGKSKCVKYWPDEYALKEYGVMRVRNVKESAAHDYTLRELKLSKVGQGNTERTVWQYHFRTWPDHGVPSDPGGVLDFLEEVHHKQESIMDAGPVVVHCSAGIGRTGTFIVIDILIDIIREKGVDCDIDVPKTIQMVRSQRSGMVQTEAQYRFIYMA

For `O=C(O)C(=O)Nc1ccc(C#Cc2ccc(C(F)(F)F)cc2)cc1` [Compound 4k, 2-oxo-2-((4-((4-(trifluoromethyl)phenyl)ethynyl)phenyl)amino)acetic Acid], the LogD [1] was 1.97, the IC50 [2] was > 50 µM and the IC50 [3] was > 50 µM. The IC50 [4] was > 30 µM, the IC50 [5] was > 50 µM and the IC50 [6] was > 30 µM. For the same molecule, the IC50 [7] was > 50 µM, the IC50 [8] was > 30 µM and the “Aq. Sol (μM), kinetic solubility” value [9] was 22.4 µM. The IC50 [10] was > 30 µM, the IC50 [11] was > 50 µM and the IC50 [12] was > 30 µM. The IC50 [13] was > 50 µM, the IC50 [14] was > 30 µM and the IC50 [15] was > 30 µM. For the same molecule, the IC50 [16] was > 30 µM, the “Microsome Stability, % remaining” value [17] was 38 ± 1.6% and the IC50 [18] was > 30 µM. The IC50 [19] was > 30 µM, the IC50 [20] was > 30 µM and the IC50 [21] was > 30 µM. For the same molecule, the IC50 [22] was > 30 µM, the IC50 [23] was > 30 µM and the IC50 [24] was > 30 µM. For the same molecule, the IC50 [25] was > 50 µM.

— patent publication US11192850B2, “N-aryl oxamic acids” (Purdue Research Foundation, priority 2020, dated 2021)
